Results reported in patent US20240016901A1, “COMPOSITIONS AND METHODS FOR PREVENTING AND TREATING SARS-COV-2 INFECTION” (priority 2020, published 2024).
pEC50, pIC50: −log10 of the molar value. Where two headings read alike, the source gives them in different places.

What was measured:
SARS-CoV-2 [1] = assay: microbe, parasite or virus in culture; type: cell-based; conditions: for pIC50: read-out: IC50 against SARS-CoV-2 infection
SigmaR2 = conditions: literature value (Diaz et al. 2012); cited from earlier work
SARS-CoV-2 [2] = conditions: Gordon et al. 2020; cited from earlier work
SigmaR1 = conditions: read-out: SigmaR1 IC50; literature values (Moebius et al. 1997; Diaz et al. 2012); cited from earlier work
[3] = Severe acute respiratory syndrome coronavirus 2, Huh-7
[4] = Severe acute respiratory syndrome coronavirus 2, Huh-7 cells, MOI 0.2, 10-point two-fold dilution dose response in triplicate
[5] = Severe acute respiratory syndrome coronavirus 2, Huh-7 cells

Compound: COc1cc(Nc2c(C#N)cnc3cc(OCCCN4CCN(C)CC4)c(OC)cc23)c(Cl)cc1Cl [Bosutinib]
- pEC50 (SARS-CoV-2 [1]; [3]): 7.55

Compound: C[C@@](Cc1ccc(O)c(O)c1)(NN)C(=O)O [Carbidopa]
- exacerbation of SARS-CoV-2 infection (SARS-CoV-2 [1]; Huh-7 cells): exacerbate SARS-CoV-2 infection

Compound: CC(C)N=c1cc2n(-c3ccc(Cl)cc3)c3ccccc3nc-2cc1Nc1ccc(Cl)cc1 [Clofazamine]
- pEC50 (SARS-CoV-2 [1]): 6.98

Compound: C=C1[C@H](CO)[C@@H](O)C[C@@H]1n1cnc2c(=O)[nH]c(N)nc21 [Entecavir]
- pEC50 (SARS-CoV-2 [1]; [4]): 6.70

Compound: Cc1cnc(Nc2ccc(OCCN3CCCC3)cc2)nc1Nc1cccc(S(=O)(=O)NC(C)(C)C)c1 [Fedratinib]
- pEC50 (SARS-CoV-2 [1]; [4]): 7.60
- pIC50 (SARS-CoV-2 [1]; [5]): 7.60

Compound: CCc1nc(C(N)=O)c(Nc2ccc(N3CCC(N4CCN(C)CC4)CC3)c(OC)c2)nc1NC1CCOCC1 [Gilteritinib]
- pEC50 (SARS-CoV-2 [1]; [4]): 6.68

Compound: O=C(NC1CCN(CCCCC2(C(=O)NCC(F)(F)F)c3ccccc3-c3ccccc32)CC1)c1ccccc1-c1ccc(C(F)(F)F)cc1 [Lomitapide]
- pEC50 (SARS-CoV-2 [1]; [4]): 5.80

Compound: CCN(CC)CCNC(=O)c1cc(Cl)c(N)cc1OC [Metoclopramide]
- antiviral activity against SARS-CoV-2 (in words) (SARS-CoV-2 [1]; Huh-7 cells): dose dependent antiviral activity
- pEC50 (SARS-CoV-2 [1]; [4]): 6.33

Compound: O=C(Nc1ccc([N+](=O)[O-])cc1Cl)c1cc(Cl)ccc1O [Niclosamide]
- pEC50 (SARS-CoV-2 [1]; [4]): 6.85

Compound: CCC(CC)COC(=O)[C@H](C)N[P@](=O)(OC[C@H]1O[C@@](C#N)(c2ccc3c(N)ncnn23)[C@H](O)[C@@H]1O)Oc1ccccc1 [Remdesivir]
- pEC50 (SARS-CoV-2 [1]; [3]): 7.02

Compound: Cc1cc(OCCN2CCOCC2)nn1-c1ccc2ccccc2c1 [S1RA, 4-{2-[5-methyl-1-(naphthalen-2-yl)-1H-pyrazol-3-yloxy]ethyl}morpholine]
- pEC50 (SARS-CoV-2 [1]; [4]): 6.65
- pIC50 (SARS-CoV-2 [1]; [5]): 6.65
- cell toxicity (Huh-7 cells): limited cell toxicity
- pIC50 (SigmaR2): < 6.00
- antiviral activity in Vero-E6 cells (SARS-CoV-2 [2]): not observed
- pIC50 (SigmaR1): 7.77

Compound: Nc1nc2nc[nH]c2c(=S)[nH]1 [Thioguanine]
- pEC50 (SARS-CoV-2 [1]; [4]): 6.63

Compound: COc1ccc(CCN(C)CCCC(C#N)(c2ccc(OC)c(OC)c2)C(C)C)cc1OC (stereo not shown) [Verapamil]
- pEC50 (SARS-CoV-2 [1]; [3]): 6.34

Compound: CC(NC(=O)[C@H](Cc1ccccc1)NC(=O)OCc1ccccc1)C(=O)CF (stereo partly shown) [Z-FA-FMK]
- pEC50 (SARS-CoV-2 [1]): 6.97
- antiviral activity against SARS-CoV-2 (in words) (SARS-CoV-2 [1]; Huh-7 cells): potent antiviral activity

Compound: CC(C)(C#N)c1cc(Cn2cncn2)cc(C(C)(C)C#N)c1 [anastrozole]
- exacerbation of SARS-CoV-2 infection (SARS-CoV-2 [1]; Huh-7 cells): exacerbate SARS-CoV-2 infection

Compound: C[C@@H]1CCN(C(=O)CC#N)C[C@@H]1N(C)c1ncnc2[nH]ccc12 [tofacitinib]
- antiviral activity against SARS-CoV-2 (in words) (SARS-CoV-2 [1]; Huh-7 cells): the latter was the only one active

Compound: transferrin: the protein transferrin (Sigma Aldrich, T2036)
- anti-SARS-CoV-2 activity, percentage of infected Huh-7 cells (SARS-CoV-2 [1]; Huh-7 cells, protein at 2.3 μM, FIG. 6E): devoid of any anti-SARS-CoV-2 activity
